These results are taken from US20030109460A1, “Medicinal composition containing camptothecin derivative and ph regulating agent” (priority 2000, published 2003).

Values joined by “and” are separate entries in the source; they are usually repeats but may differ in a detail not shown here. Equal entries are not always repeated.

Data set [1] in a line: Solubility under strongly acidic condition. The class given is physicochemical. The settings on record: strongly acidic condition of pH 2.0 or less; salting out. An excerpt:
Generally, camptothecin derivatives have a lactone ring structure, so it is considered that reduction of the drug effect occurs due to ring-opening of the lactone ring in the structure in the alkaline range. In consequence, it is desirable that a pharmaceutical composition containing a camptothecin derivative having a lactone ring or a salt thereof is maintained within acidic range for the purpose of keeping the lactone ring under closed state. […] From two viewpoints of keeping closed state of lactone ring and ensuring proper solubility of the compound, it is desirable that the pharmaceutical composition of the invention is maintained within a weakly acidic condition by formulating a pH-adjusting substance. In this connection, when the pharmaceutical composition is an aqueous preparation, the term “a weakly acidic condition” as used herein means from about pH 3 to 6, and when the pharmaceutical composition is a freeze-dried preparation, it means that pH of an aqueous solution prepared by dissolving in water is from about pH 3 to 6.

Data set [2] can be described thus: Stability against heat and light. The class given is physicochemical. The settings on record: severe treatment with heat and light. How it is done:
In consequence, overkill approach and the like sterilization methods which accompany heating are not suited for the pharmaceutical composition of the invention. In order to obtain a substantially sterilized condition, it is desirable to employ a method in which the pharmaceutical composition is prepared under aseptic condition, a method in which a filter sterilization-treated solution of the pharmaceutical composition is made into a freeze-dried preparation, and the like. Particularly, the method for making a freeze-dried preparation is desirable. In addition, it is desirable for its preservation to use a container having shading ability. For example, brown vials and the like can be cited.

The test system of the next data set is tumor. Nature of the data set: Anti-tumor effect.
Data set [3] can be described thus: Long term stability of freeze-dried compound AS methanesulfonate (Example 8). The class given is physicochemical. As for the experimental part: A 1.4 kg portion of maltose and 73 g (56 g as converted to free form) of compound AS methanesulfonate was dissolved in 22 L of water (AS methanesulfonate:maltose=1:19 by weight). […] After freeze drying, this was stored under a condition of 5° C. or 25° C. with a relative humidity of 60%, and then dissolved in water to the same concentration of the solution before freeze drying to measure pH. […] Colorless vials were used as the container.

Data set [4] can be described thus: Changes in pH by freeze drying treatment (Example 7). Particulars: for pH Before freeze drying / pH After freeze drying: Compound AS 2 mg, hydrochloric acid; for pH After freeze drying: redissolved to same concentration. The class given is physicochemical. As for the experimental part:
The pharmaceutical composition containing compound AS methanesulfonate was produced according to the formulation and production scale shown in Table 7 (AS methanesulfonate:maltose=1:19 or 1:38 by weight), and pH of the solution before freeze drying and pH of a solution prepared by dissolving the preparation after freeze drying in water to the same concentration of the solution before freeze drying were measured.

The nature of data set [5]: Stability of freeze-dried compound AS methanesulfonate, effect of pH, maltose 50 mg/ml (Example 6). The class given is physicochemical. The settings on record: colorless vials.
Experimental: Maltose was added to an aqueous solution (1.0 mg/ml as a concentration converted to free form) of compound AS methanesulfonate to the final concentration of 50 mg/ml (AS methanesulfonate:maltose=1:38 by weight), and pH was adjusted to 2.5, 3.0, 3.5 or 4.0 by adding hydrochloric acid. […] Colorless vials were used as the container.
Data set [6] is described as follows: Stability of freeze-dried compound AS methanesulfonate, effect of adding amount of maltose (Example 4). The class given is physicochemical. The settings on record: brown vials.
The nature of data set [7]: Stability of freeze-dried compound AS methanesulfonate, effect of pH, maltose 100 mg/ml (Example 5). The class given is physicochemical. The settings on record: brown vials.
Experimental: Maltose was added to an aqueous solution (1.0 mg/ml as a concentration converted to free form) of compound AS methanesulfonate to the final concentration of 100 mg/ml (AS methanesulfonate:maltose=1:77 by weight), and pH was adjusted to 3.5, 4.0 or 4.5 by adding hydrochloric acid. […] Brown vials were used as the container.
[8] abbreviates: 25° C., 60% R.H., Starting time.
[9] abbreviates: Production scale 28.0 L, Maltose 50 mg, water total vol. 1 ml.
Setting [10] is: Production scale 90.0 L, Maltose 100 mg, water total vol. 2 ml.

Turning to `CC[C@@]1(O)C(=O)OCc2c1cc1n(c2=O)Cc2c-1nc1cc(F)c(C)c3c1c2C(N)CC3` (stereo partly drawn) [compound A, (9S)-1-amino-9-ethyl-5-fluoro-2,3-dihydro-9-hydroxy-4-methyl-1H,12H-benzo[de]pyrano[3′,4′:6,7]indolizino[1,2-b]quinoline-10,13(9H,15H)-dione], in data set [1], the solubility result is reported as “considerably reduced”. The “stability against heat and light” value in data set [2] is given as “considerably unstable”.
Consider `CC[C@@]1(O)C(=O)OCc2c1cc1n(c2=O)Cc2c-1nc1cc(F)c(C)c3c1c2[C@H](N)CC3` [compound AR, (1R,9S)-1-amino-9-ethyl-5-fluoro-2,3-dihydro-9-hydroxy-4-methyl-1H,12H-benzo[de]pyrano[3′,4′:6,7]indolizino[1,2-b]quinoline-10,13 (9H,15H)-dione], for which the anti-tumor effect result in the data set on tumor is “potent anti-tumor effect”.
As to `CC[C@@]1(O)C(=O)OCc2c1cc1n(c2=O)Cc2c-1nc1cc(F)c(C)c3c1c2[C@@H](N)CC3.CS(=O)(=O)O` [compound AS methanesulfonate, (1S,9S)-1-amino-9-ethyl-5-fluoro-2,3-dihydro-9-hydroxy-4-methyl-1H,12H-benzo[de]pyrano[3′,4′:6,7]indolizino[1,2-b]quinoline-10,13(9H,15H)-dione methanesulfonate], the “Total analogous matter weight %” value amounted to 0.32 weight % in data set [3] (5° C., 1 month); 0.33 weight % in data set [3] (5° C., 3 months); 0.33 weight % in data set [3] (5° C., 6 months); 0.33 weight % in data set [3] (5° C., 9 months); 0.33 weight % in data set [3] (5° C., 12 months); 0.33 weight % in data set [3] (5° C., 24 months). The “Total analogous matter weight %” value is reported as 0.33 weight % in data set [3] (5° C., 30 months); 0.32 weight % in data set [3] (5° C., 37 months); 0.33 weight % in data set [3] (5° C., Starting time, colorless vials); 0.33 weight % in data set [3] (25° C., 60% R.H., 1 month); 0.33 weight % in data set [3] (25° C., 60% R.H., 3 months); 0.33 weight % in data set [3] (25° C., 60% R.H., 6 months). In addition, the “Total analogous matter weight %” value in data set [3] (25° C., 60% R.H., 9 months) is given as 0.33 weight %; in data set [3] (25° C., 60% R.H., 12 months) it was 0.33 weight %; in data set [3] (25° C., 60% R.H., 24 months), 0.33 weight %; in data set [3] (25° C., 60% R.H., 37 months) it was 0.33 weight %; in data set [3] (setting [8]), 0.33 weight %. Further, the pH in data set [3] (5° C., 1 month) is recorded as 3.9; in data set [3] (5° C., 3 months), 3.9; in data set [3] (5° C., 6 months) it was 3.7; in data set [3] (5° C., 9 months), 4.0; in data set [3] (5° C., 12 months), 3.9; in data set [3] (5° C., 24 months) it was 4.1. In addition, the pH in data set [3] (5° C., 30 months) is listed as 4.6; in data set [3] (5° C., 37 months), 3.7; in data set [3] (5° C., Starting time, redissolved in water), 3.8; in data set [3] (25° C., 60% R.H., 1 month) it was 3.9; in data set [3] (25° C., 60% R.H., 3 months), 3.9; in data set [3] (25° C., 60% R.H., 6 months), 3.7. Also, the pH in data set [3] (25° C., 60% R.H., 9 months) was 4.0; in data set [3] (25° C., 60% R.H., 12 months) it was 4.0; in data set [3] (25° C., 60% R.H., 24 months) it was 4.3; in data set [3] (25° C., 60% R.H., 37 months), 3.9; in data set [3] (setting [8]), 3.8. For the same molecule, the “formation of the total analogous matter as weight %” value in data set [3] (until 37 months) is not above 0.33%. Also, the “change of pH by freeze drying treatment” value in data set [4] (maltose 1:19 or 1:38 by weight) is listed as “hardly changes”. The “Weight % of total analogous matter” value is given as 21.43 Weight % in data set [5] (pH 2.5, 60° C., 2 weeks); 1.05 Weight % in data set [5] (pH 2.5, Starting time); 10.64 Weight % in data set [5] (pH 3.0, 60° C., 2 weeks); 0.42 Weight % in data set [5] (pH 3.0, Starting time); 5.07 Weight % in data set [5] (pH 3.5, 60° C., 2 weeks); 0.27 Weight % in data set [5] (pH 3.5, Starting time). Moreover, the “Weight % of total analogous matter” value in data set [5] (pH 4.0, 60° C., 2 weeks) came out at 1.83 Weight %; in data set [5] (pH 4.0, Starting time), 0.23 Weight %; in data set [6] (Maltose 50 mg/ml, 40° C., 75% R.H., 1 month, pH 4.0), 0.52 Weight %; in data set [6] (Maltose 50 mg/ml, 50° C., 1 month, pH 4.0), 0.80 Weight %; in data set [6] (Maltose 50 mg/ml, Starting time, pH 4.0 hydrochloric acid), 0.34 Weight %; in data set [6] (Maltose 100 mg/ml, 40° C., 75% R.H., 1 month, pH 4.0) it was 1.36 Weight %. For the same molecule, the “Weight % of total analogous matter” value turned out to be 2.24 Weight % in data set [6] (Maltose 100 mg/ml, 50° C., 1 month, pH 4.0); 0.50 Weight % in data set [6] (Maltose 100 mg/ml, Starting time, pH 4.0); 3.12 Weight % in data set [7] (pH 3.5, 40° C., 75% R.H., 1 month); 7.52 Weight % in data set [7] (pH 3.5, 60° C., 2 weeks); 0.72 Weight % in data set [7] (pH 3.5, Starting time); 1.36 Weight % in data set [7] (pH 4.0, 40° C., 75% R.H., 1 month). Besides, the “Weight % of total analogous matter” value in data set [7] (pH 4.0, 60° C., 2 weeks) was 3.13 Weight %; in data set [7] (pH 4.0, Starting time) it was 0.50 Weight %; in data set [7] (pH 4.5, 40° C., 75% R.H., 1 month), 0.51 Weight %; in data set [7] (pH 4.5, 60° C., 2 weeks), 0.75 Weight %; in data set [7] (pH 4.5, Starting time), 0.40 Weight %.
As to `CC[C@@]1(O)C(=O)OCc2c1cc1n(c2=O)Cc2c-1nc1cc(F)c(C)c3c1c2[C@@H](N)CC3` [compound AS, (1S,9S)-1-amino-9-ethyl-5-fluoro-2,3-dihydro-9-hydroxy-4-methyl-1H,12H-benzo[de]pyrano[3′,4′:6,7]indolizino[1,2-b]quinoline-10,13(9H,15H)-dione], in data set [4] (setting [9]), the “pH Before freeze drying” value is 3.73 and 3.67; the “pH After freeze drying” value is 4.00 and 3.83. Further, in data set [4] (setting [10]), the “pH Before freeze drying” value came to 3.85 and the “pH After freeze drying” value turned out to be 3.97. The anti-tumor effect entry in the data set with tumor was “potent anti-tumor effect”. The “anti-tumor effect relative to compound AR” value in the data set on tumor (compound AS versus compound AR) is reported as “about two times higher”.
